Assay results: PubChem BioAssay AID248 (DTP/NCI, 2004)
Several values for one entry are separate records, joined by “and”; a condition that tells them apart may be missing. Equal values may be shown once. Toxic doses and inconclusive results are not listed.

System: L1210 leukemia ip in BDF1 mice, survival T/C
Assay: NCI In Vivo Anticancer Drug Screen. Data for tumor model L1210 Leukemia (intraperitoneal) in B6D2F1 (BDF1) mice
Details: endpoint: mean survival time, higher = longer survival
Method in brief: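 Survival endpoint. Drug-treated group vs vehicle group, expressed as T divided by C. Tumor passaged by transplantation.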

[1] = dose: 50.0 mg/kg/injection, schedule: Q01DX009 (ip), vehicle: Klucel (hydroxypropylcellulose) (HPC)
[2] = dose: 100.0 mg/kg/injection, schedule: Q01DX009 (ip), vehicle: Klucel (hydroxypropylcellulose) (HPC)
[3] = dose: 100.0 mg/kg/injection, schedule: Q04DX003 (ip), vehicle: Klucel (hydroxypropylcellulose) (HPC)
[4] = dose: 200.0 mg/kg/injection, schedule: Q01DX009 (ip), vehicle: Klucel (hydroxypropylcellulose) (HPC)
[5] = dose: 200.0 mg/kg/injection, schedule: Q04DX003 (ip), vehicle: Klucel (hydroxypropylcellulose) (HPC)
[6] = dose: 400.0 mg/kg/injection, schedule: Q04DX003 (ip), vehicle: Klucel (hydroxypropylcellulose) (HPC)
[7] = dose: 100.0 mg/kg/injection, schedule: Q04DX003 (ip), vehicle: saline with Tween-80
[8] = dose: 200.0 mg/kg/injection, schedule: Q04DX003 (ip), vehicle: saline with Tween-80
[9] = dose: 400.0 mg/kg/injection, schedule: Q04DX003 (ip), vehicle: saline with Tween-80

## COC(=O)c1ccc(C)c(-n2c(-c3ccccc3)nnc2-c2ccccc2)c1
[1]
  T/C: 102 % of control
[2]
  T/C: 93 % of control
[3]
  T/C: 95 % of control
[4]
  T/C: 95 % of control
[5]
  T/C: 92 % of control
[6]
  T/C: 97 % of control

## CN(c1ccccc1)S(=O)(=O)c1ccccc1
dose: 100.0 mg/kg/injection, schedule: Q01DX009 (ip), vehicle: saline with Tween-80
  T/C: 100 % of control
[7]
  T/C: 97 % of control
dose: 200.0 mg/kg/injection, schedule: Q01DX009 (ip), vehicle: saline with Tween-80
  T/C: 106 % of control
[8]
  T/C: 97 % of control
dose: 400.0 mg/kg/injection, schedule: Q01DX009 (ip), vehicle: saline with Tween-80
  T/C: 90 % of control
[9]
  T/C: 92 % of control

## CS(=O)(=O)OCC1C2CCC(CC2)C1COS(C)(=O)=O (centres undefined)
[3]
  T/C: 100 % of control
[5]
  T/C: 103 % of control
[6]
  T/C: 102 % of control

## O=[N+]([O-])c1ccc(Cl)cc1/C=N/Nc1c2ccccc2nc2ccccc12
dose: 100.0 mg/kg/injection, schedule: Q01DX001 (ip), vehicle: saline
  T/C: 92 % of control

## COC(=O)C1CC(OS(=O)(=O)c2ccc(C)cc2)CN1C(=O)OCc1ccccc1 (centres undefined)
[7]
  T/C: 102 % of control
[8]
  T/C: 94 % of control
[9]
  T/C: 92 % of control

## O=C(CC1OC1c1ccccc1)c1ccccc1 (centres undefined)
dose: 50.0 mg/kg/injection, schedule: Q01DX001 (ip), vehicle: Klucel (hydroxypropylcellulose) (HPC)
  T/C: 110 % of control
dose: 100.0 mg/kg/injection, schedule: Q01DX001 (ip), vehicle: Klucel (hydroxypropylcellulose) (HPC)
  T/C: 100 % of control
dose: 100.0 mg/kg/injection, schedule: Q04DX003 (ip), vehicle: other
  T/C: 99 % of control
dose: 200.0 mg/kg/injection, schedule: Q01DX001 (ip), vehicle: Klucel (hydroxypropylcellulose) (HPC)
  T/C: 102 % of control
dose: 200.0 mg/kg/injection, schedule: Q04DX003 (ip), vehicle: other
  T/C: 94 % of control
dose: 400.0 mg/kg/injection, schedule: Q04DX003 (ip), vehicle: other
  T/C: 101 % of control

## O=C(COc1ccccc1)Nc1ccc[n+](Cc2ccc(S(=O)(=O)F)cc2)c1
dose: 100.0 mg/kg/injection, schedule: Q04DX003 (ip), vehicle: saline
  T/C: 95 % of control and 118 % of control
dose: 200.0 mg/kg/injection, schedule: Q04DX003 (ip), vehicle: saline
  T/C: 101 % of control and 118 % of control
dose: 400.0 mg/kg/injection, schedule: Q04DX003 (ip), vehicle: saline
  T/C: 95 % of control and 114 % of control

## CC(Cc1ccccc1)n1c(-c2ccccc2)c[n+]2ccccc12 (centres undefined)
dose: 1.17 mg/kg/injection, schedule: Q01DX001 (ip), vehicle: other
  T/C: 101 % of control
dose: 2.34 mg/kg/injection, schedule: Q01DX001 (ip), vehicle: other
  T/C: 102 % of control
dose: 4.69 mg/kg/injection, schedule: Q01DX001 (ip), vehicle: other
  T/C: 102 % of control

## O=C1c2ccccc2C(=O)N1SN1C(=O)c2ccccc2C1=O
dose: 25.0 mg/kg/injection, schedule: Q01DX009 (ip), vehicle: Klucel (hydroxypropylcellulose) (HPC)
  T/C: 92 % of control
[1]
  T/C: 93 % of control
[2]
  T/C: 97 % of control

## COc1ccc2c(C(=O)O)c(C(=O)c3ccccc3)ccc2c1OC
dose: 100.0 mg/kg/injection, schedule: Q01DX001 (ip), vehicle: gum acacia
  T/C: 98 % of control
dose: 200.0 mg/kg/injection, schedule: Q01DX001 (ip), vehicle: gum acacia
  T/C: 98 % of control
dose: 400.0 mg/kg/injection, schedule: Q01DX001 (ip), vehicle: gum acacia
  T/C: 94 % of control

## CO/N=C(\N)Oc1c(C)cccc1C
[2]
  T/C: 107 % of control
[4]
  T/C: 96 % of control
dose: 400.0 mg/kg/injection, schedule: Q01DX009 (ip), vehicle: Klucel (hydroxypropylcellulose) (HPC)
  T/C: 103 % of control

## CN(C(=O)c1ccc(C(=N)N)cc1)c1ccccc1
dose: 100.0 mg/kg/injection, schedule: Q01DX001 (ip), vehicle: saline with Tween-80
  T/C: 100 % of control
dose: 200.0 mg/kg/injection, schedule: Q01DX001 (ip), vehicle: saline with Tween-80
  T/C: 100 % of control

## CC(=O)Oc1ccc(/C=N/NC(N)=S)nc1
dose: 24.0 mg/kg/injection, schedule: Q03HX024 (ip), vehicle: saline with Tween-80
  T/C: 212 % of control
dose: 36.0 mg/kg/injection, schedule: Q03HX024 (ip), vehicle: saline with Tween-80
  T/C: 339 % of control
